We go through eight compounds from ChEMBL document CHEMBL5126543, “Tandem construction of biological relevant aliphatic 5-membered N-heterocycles” (Eur J Med Chem, 2022).

In brackets after ≈: the same amount, converted by molar mass. *1 amine or outer side, *2 acyl side, *3 side chain or, on linkers, in order; H or OH if unused. Where a SMILES comes first, the peptide text is derived from it. [ ]: non-standard residue; d: D form. Pro(trans-4-cHex) = O=C(O)[C@@H]1C[C@@H](C2CCCCC2)CN1; Pro(trans-4-Ph) = O=C(O)[C@@H]1C[C@@H](c2ccccc2)CN1; Pro(cis-4-OPh) = O=C(O)[C@@H]1C[C@H](Oc2ccccc2)CN1; X1 = CS[C@H]1C[C@@H](C(=O)[*:2])N([*:1])C1

Data set [1] can be described thus: Selectivity index, Ratio of IC50 for human MC3T3-E1 cells to IC50 of human MDA-MB-231 cells. The conditions noted are these: MC3T3-E1 cells versus MDA-MB-231 cells, read-out: Ratio IC50. It counts as toxicity.
A short description of data set [2]: Selectivity index, Ratio of IC50 for human MC3T3-E1 cells to IC50 of human PANC-1 cells.
The nature of data set [3]: Cytotoxicity against human MC3T3-E1 cells assessed as decrease in cell viability measured after 36 hrs by WST-1 assay. It is filed as toxicity, cell-based. The conditions noted are these: mouse.
A further data set has as its system MDA-MB-231. The data set is described as follows: Antitumor activity against human MDA-MB-231 cells assessed as decrease in cell viability measured after 36 hrs by WST-1 assay. It is filed as functional, cell-based. The conditions noted are these: MDA-MB-231, 36 h.
In the next data set the test system is PANC-1. The data set is described as follows: Antitumor activity against human PANC-1 cells assessed as decrease in cell viability measured after 36 hrs by WST-1 assay. It is filed as functional, cell-based. The conditions noted are these: PANC-1, 36 h.
Data set [4] concerns the target T1, Nonstructural protein 5A (Hepatitis C virus, UniProt Q5L478).
T1 sequence (Q5L478 whole entry): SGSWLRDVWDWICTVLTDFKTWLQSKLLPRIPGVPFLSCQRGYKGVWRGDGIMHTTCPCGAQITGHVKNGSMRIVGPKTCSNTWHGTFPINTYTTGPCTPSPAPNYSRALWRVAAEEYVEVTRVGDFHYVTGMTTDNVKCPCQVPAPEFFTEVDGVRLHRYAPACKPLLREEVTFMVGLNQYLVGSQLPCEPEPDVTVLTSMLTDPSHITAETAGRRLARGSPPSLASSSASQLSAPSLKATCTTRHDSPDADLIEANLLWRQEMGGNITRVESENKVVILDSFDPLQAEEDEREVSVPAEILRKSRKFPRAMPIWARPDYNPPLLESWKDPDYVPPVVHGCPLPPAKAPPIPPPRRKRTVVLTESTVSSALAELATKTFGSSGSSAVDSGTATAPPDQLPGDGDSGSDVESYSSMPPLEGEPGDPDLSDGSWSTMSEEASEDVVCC
The data set is described as follows: Inhibition of HCV genotype 3a NS5A. Details: species or system Hepacivirus hominis.

In data set [5] the target is T1, Nonstructural protein 5A. The data set is described as follows: Inhibition of HCV genotype 5a NS5A. Details: species or system Hepacivirus hominis.
Data set [6] addresses T1, Nonstructural protein 5A. The experiment in a line: Inhibition of HCV genotype 2a NS5A. More on the design: species or system Hepacivirus hominis.
Data set [7] concerns the target T1, Nonstructural protein 5A. The experiment in a line: Inhibition of HCV genotype 1b NS5A. Details: species or system Hepacivirus hominis.
In data set [8] the target is T1, Nonstructural protein 5A. The data set is described as follows: Inhibition of HCV genotype 1a NS5A. Details: species or system Hepacivirus hominis.
In data set [9] the target is T1, Nonstructural protein 5A. The experiment in a line: Inhibition of HCV genotype 4a NS5A. Details: species or system Hepacivirus hominis.
The target of data set [10] is T1, Nonstructural protein 5A. The experiment in a line: Inhibition of HCV genotype 6a NS5A. Details: species or system Hepacivirus hominis.
For a further data set, the system named is Candida albicans. The data set is described as follows: Antimicrobial activity against Candida albicans ATCC 24433 incubated for 18 to 20 hrs. It counts as functional. The conditions noted are these: time 18-20 hrs.
The next data set deals with Pseudomonas aeruginosa. The data set is described as follows: Antimicrobial activity against Pseudomonas aeruginosa ATCC 27853 incubated for 18 to 20 hrs. It counts as functional. The conditions noted are these: time 18-20 hrs.
Data set [11] concerns Staphylococcus epidermidis. The experiment in a line: Antimicrobial activity against Staphylococcus epidermidis ATCC 12228 incubated for 18 to 20 hrs. It counts as functional. To be noted: time 18-20 hrs.
The subject of the next data set is Escherichia coli. The data set is described as follows: Antimicrobial activity against Escherichia coli ATCC 25922 incubated for 18 to 20 hrs. It is filed as functional. The conditions noted are these: time 18-20 hrs.
A further data set concerns Priestia megaterium. The experiment in a line: Antimicrobial activity against Bacillus megaterium Bm11 incubated for 18 to 20 hrs. It is filed as functional. To be noted: time 18-20 hrs.

For the compound `CCCCCCCCC#CC(c1ccc(C(=O)OC)cc1)N1CCCC1` (configuration not stated), the selectivity ratio in data set [1] was found to be 1.91. The “Ratio IC50” value in [2] is on record as 41.17. In addition, the IC50 at 36 h in data set [3] turned out to be 558000 nM. For the same compound, the IC50 in the data set with MDA-MB-231 is 291000 nM; with PANC-1 it was 13600 nM.

Regarding `CCCCCCCCC#CC(c1ccccc1)N1CCCC1` (configuration not stated), the selectivity ratio in data set [1] stood at 3.38. Moreover, the “Ratio IC50” value in data set [2] was 11.6. The concentration for half-maximal inhibition (IC50) at 36 h in data set [3] was 250000 nM. The concentration for half-maximal inhibition (IC50) in the data set with MDA-MB-231 was found to be 74000 nM; in the data set on PANC-1, 21600 nM.

Regarding `COC(=O)N[C@H](C(=O)N1CCC[C@H]1c1ncc(-c2ccc3c(c2)CC2c4c(F)cc(-c5cnc([C@@H]6CCCN6C(=O)[C@@H](NC(=O)OC)C(C)C)[nH]5)cc4O[C@@H](c4cnc(C5CC5)s4)N32)[nH]1)C(C)C` (some centres not stated), the EC50 at Nonstructural protein 5A [4] worked out at 0.003 nM; at Nonstructural protein 5A [5], 0.0018 nM; at Nonstructural protein 5A [6] it was 0.001 nM; on Nonstructural protein 5A [7], 0.002 nM; on Nonstructural protein 5A [8] it was 0.0007 nM; on Nonstructural protein 5A [9], 0.0007 nM. The compound also showed a half-maximal effective concentration (EC50) at Nonstructural protein 5A [10] of 0.001 nM.

As to `CC[C@H](C)[C@H](NC(=O)[C@H](CCCNC(=N)N)NC(=O)CNC(=O)[C@H](CC(C)C)NC(=O)[C@H](Cc1ccccc1)NC(=O)[C@H](CCCCN)NC(=O)[C@H](CO)NC(=O)[C@H](Cc1ccccc1)NC(=O)[C@H](Cc1c[nH]c2ccccc12)NC(=O)[C@H](CCC(N)=O)NC(=O)[C@@H]1C[C@H](Oc2ccccc2)CN1C(=O)[C@@H](NC(=O)[C@@H](N)Cc1ccccc1)C(C)C)C(=O)N[C@@H](CC(C)C)C(N)=O` (H-FV[Pro(cis-4-OPh)]QWFSKFLGRIL-NH2), the MIC with Candida albicans amounted to 12.5 µM (≈ 22.9 µg/mL); in the data set with Pseudomonas aeruginosa it was 50 µM (≈ 91.5 µg/mL); in [11] it was 3.12 µM (≈ 5.71 µg/mL); against Escherichia coli, 25 µM (≈ 45.7 µg/mL); with Priestia megaterium, 3.12 µM (≈ 5.71 µg/mL).

With `CC[C@H](C)[C@H](NC(=O)[C@H](CCCNC(=N)N)NC(=O)CNC(=O)[C@H](CC(C)C)NC(=O)[C@H](Cc1ccccc1)NC(=O)[C@H](CCCCN)NC(=O)[C@H](CO)NC(=O)[C@H](Cc1ccccc1)NC(=O)[C@H](Cc1c[nH]c2ccccc12)NC(=O)[C@H](CCC(N)=O)NC(=O)[C@@H]1C[C@@H](c2ccccc2)CN1C(=O)[C@@H](NC(=O)[C@@H](N)Cc1ccccc1)C(C)C)C(=O)N[C@@H](CC(C)C)C(N)=O` (H-FV[Pro(trans-4-Ph)]QWFSKFLGRIL-NH2), the MIC in the data set on Candida albicans came to 12.5 µM (≈ 22.7 µg/mL); in the data set with Pseudomonas aeruginosa, 50 µM (≈ 90.7 µg/mL); in [11], 3.12 µM (≈ 5.66 µg/mL); against Escherichia coli, 12.5 µM (≈ 22.7 µg/mL); in the data set on Priestia megaterium it was 3.12 µM (≈ 5.66 µg/mL).

Regarding `CC[C@H](C)[C@H](NC(=O)[C@H](CCCNC(=N)N)NC(=O)CNC(=O)[C@H](CC(C)C)NC(=O)[C@H](Cc1ccccc1)NC(=O)[C@H](CCCCN)NC(=O)[C@H](CO)NC(=O)[C@H](Cc1ccccc1)NC(=O)[C@H](Cc1c[nH]c2ccccc12)NC(=O)[C@H](CCC(N)=O)NC(=O)[C@@H]1C[C@@H](C2CCCCC2)CN1C(=O)[C@@H](NC(=O)[C@@H](N)Cc1ccccc1)C(C)C)C(=O)N[C@@H](CC(C)C)C(N)=O` (H-FV[Pro(trans-4-cHex)]QWFSKFLGRIL-NH2), the MIC against Candida albicans is 25 µM (≈ 45.5 µg/mL); in the data set on Pseudomonas aeruginosa, 100 µM (≈ 182 µg/mL); in [11], 3.12 µM (≈ 5.68 µg/mL); with Escherichia coli, 50 µM (≈ 91 µg/mL); in the data set with Priestia megaterium it was 3.12 µM (≈ 5.68 µg/mL).

Take `CC[C@H](C)[C@H](NC(=O)[C@H](CCCNC(=N)N)NC(=O)CNC(=O)[C@H](CC(C)C)NC(=O)[C@H](Cc1ccccc1)NC(=O)[C@H](CCCCN)NC(=O)[C@H](CO)NC(=O)[C@H](Cc1ccccc1)NC(=O)[C@H](Cc1c[nH]c2ccccc12)NC(=O)[C@H](CCC(N)=O)NC(=O)[C@@H]1C[C@H](SC)CN1C(=O)[C@@H](NC(=O)[C@@H](N)Cc1ccccc1)C(C)C)C(=O)N[C@@H](CC(C)C)C(N)=O` (H-FV[X1]QWFSKFLGRIL-NH2): the MIC in the data set with Candida albicans was 6.25 µM (≈ 11.1 µg/mL); against Pseudomonas aeruginosa it was 25 µM (≈ 44.6 µg/mL); in data set [11] it was 3.12 µM (≈ 5.56 µg/mL); against Escherichia coli, 12.5 µM (≈ 22.3 µg/mL); against Priestia megaterium it was 3.12 µM (≈ 5.56 µg/mL).

H-FVPQWFSKFLGRIL-NH2: the minimal inhibitory concentration (MIC) with Candida albicans turned out to be 12.5 µM; with Pseudomonas aeruginosa, 25 µM; in [11] it was 3.12 µM; against Escherichia coli, 12.5 µM; with Priestia megaterium, 3.12 µM.
